According to PubChem BioAssay AID540268 (Broad Institute, 2011):
Calls of active or inactive are those of the source. How the calls were made is not given here.

Assay: growth inhibition of yeast carrying parasite Hsp90, dose response, anti-malarial Hsp90 inhibitor project, ATP luminescence, 48 h, cherry-picked samples (AID 540268);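 on activity change, negative = inhibition: 0% = neutral control wells and -100% = positive control wells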
Details: yeast expressing the parasite Hsp90, ATP luminescence; for activity change, negative = inhibition: at 26 µM (top of the series)

| SMILES | AC50 | activity change, negative = inhibition |
| --- | --- | --- |
| O=C(N/N=C/c1ccc(O)c2ncccc12)c1cccc(Br)c1 | 5.08 µM |  |
| CCCC1COC(Cn2cncn2)(c2ccc(Cl)cc2Cl)O1 (configuration not stated) | < 0.195 µM |  |
| CCCCCCCC/C=C\CCCCCCCC(=O)NCCO | 9.25 µM |  |
| CC(C)N=c1scc(-c2cccs2)n1/N=C/c1ccc(O)c(O)c1O | 7.43 µM |  |
| COc1ccc([N+](=O)[O-])c(S(=O)(=O)c2ccc(Cl)cc2)n1 | 1.27 µM |  |
| CCN1CCN(C(c2ccc(C(F)(F)F)cc2)c2ccc3cccnc3c2O)CC1 (configuration not stated) | 1.54 µM |  |
| CCCCCCC(Cl)(Cn1ccnc1)c1ccccc1 (configuration not stated) | 8.41 µM |  |
| C=CC(n1cncn1)C(O)(c1ccccc1)c1ccccc1 (configuration not stated) | 1.03 µM |  |
| Cc1ccc(C(=O)OCn2ncc(Cl)c(Cl)c2=O)cc1 | 3.23 µM |  |
| OC(Cn1cncn1)(c1ccc(F)cc1)c1ccc(Cl)cc1 (configuration not stated) | < 0.195 µM |  |
| Cc1[nH]n(-c2ccc([N+](=O)[O-])cc2)c(=O)c1C=NCCN1CCN(C(=O)c2cccc(F)c2)CC1 | 5.83 µM |  |
| CN(c1ccccc1)c1ccc(/C=C/[N+](=O)[O-])cc1 | 5.24 µM |  |
| N#CSCC(=O)c1cccc2ccccc12 | 1.92 µM |  |
| O=C(Nc1ccccc1)c1nnsc1S(=O)(=O)c1ccc(Cl)cc1 | 0.435 µM |  |
| Cc1ccc(-n2ncc3c2CCCC3NC(=O)c2ccccc2N2CCOCC2)cc1C (configuration not stated) | 0.984 µM |  |
| Cc1cc(/C=C2\SC(=S)N(C)C2=O)c(C)n1-c1ccc(O)cc1 | 8.33 µM |  |
| O=[N+]([O-])c1cc(CN2CCN(c3cccc(C(F)(F)F)c3)CC2)c2cccnc2c1O | 4.42 µM |  |
| NC(=Nc1nc(-c2ccccn2)cc2ccccc12)c1ccccn1 | 3.78 µM |  |
| CC1C/C(=C/c2ccncc2)C(=O)/C(=C/c2ccncc2)C1 (configuration not stated) | 2.83 µM |  |

| SMILES | AC50 | activity change, negative = inhibition |
| --- | --- | --- |
| CCOC(=O)N=Nc1c2ccccc2c2nc3no[nH]c3nc12 | 0.769 µM |  |
| COc1ccc(NC(=O)C2CCCN2S(=O)(=O)c2cccc3cccnc23)c(OC)c1 (configuration not stated) | 1.31 µM |  |
| COc1ccccc1OCc1cc(C(=O)N2CCN(C)C(c3ccccc3)C2)no1 (configuration not stated) | 3.05 µM |  |
| CC(=O)NC(c1ccc(Cl)cc1)c1ccc2cccnc2c1O (configuration not stated) | 2.58 µM |  |
| Cc1cccc(NC(=O)c2nc(S(=O)(=O)Cc3ccccc3)ncc2Cl)c1 | 3.15 µM |  |
| Cc1cc(N2CCN(C(=O)c3ccco3)CC2)n2nc(C)c(-c3ccccc3)c2n1 | 8.36 µM |  |
| Cc1ccccc1CS(=O)(=O)c1ncc(Cl)c(C(=O)Nc2ccc(F)cc2)n1 | 4.06 µM |  |
| O=C1C=CC(=O)N1Cc1ccccc1 |  | 21.3% (inactive) |
| CC(C)c1c(O)ccc2c1CC[C@H]1C(C)(C)CCC[C@]21C | 2.86 µM |  |
| COc1cccc(/C=N/Nc2ncc(C(F)(F)F)cc2Cl)c1O | 4.33 µM |  |
| COC(=O)c1cc(=O)n(-c2ccc(F)cc2)c(=Nc2ccc(F)cc2)s1 | 13.9 µM |  |
| O=[N+]([O-])/C=C/c1c(Cl)cccc1Cl | 0.457 µM |  |
| CCCCC(=O)NC(c1ccc(Cl)cc1)c1ccc2cccnc2c1O (configuration not stated) | 16.4 µM |  |
| CN(C)/C=C/C(=O)/C=C/c1cn(-c2ncc(C(F)(F)F)cc2Cl)c2ccccc12 | 4.18 µM |  |
| CN(C)C(=S)SSC(=S)N(C)C | 3.96 µM |  |
| O=c1oc2ccccc2c(O)c1Cc1cc(Cl)c2cccnc2c1O | 3.36 µM |  |
| C[C@H]1C[C@@H](C)C(=O)[C@@H]([C@H](O)CC2CC(=O)NC(=O)C2)C1 | < 0.195 µM |  |
| CC1=C/C(=N\OS(=O)(=O)c2ccccc2)C(C(C)C)=CC1=O | 0.827 µM |  |
| O=C(C#Cc1ccccc1)c1ccco1 | 1.95 µM |  |

| SMILES | AC50 | activity change, negative = inhibition |
| --- | --- | --- |
| Cc1cccc(NC(=S)N/N=C/c2ccc([N+](=O)[O-])s2)c1 |  | -14.3% (inactive) |
| CC(C)(C)c1nnc(N/N=C/c2cc(Br)ccc2O)n(N)c1=O | 4.92 µM |  |
| Cc1ccc(NC(=S)N/N=C/c2ccc([N+](=O)[O-])s2)cc1 | 4.92 µM |  |
| O=C(CSc1ccc(-c2ccccn2)nn1)Nc1ccccc1 |  | -18.1% (inactive) |
| O=C(NNC1=C(C(=O)C(F)(F)F)CCC1)c1ccc(Br)cc1 | 0.759 µM |  |
| CC(C)N1C(=O)/C(=C\c2nc3ccccc3c(=O)[nH]2)c2ccccc21 | 6.47 µM |  |
| O=C(O)CC/C(=N/Nc1ccc([N+](=O)[O-])cc1)C(=O)O | 2.22 µM |  |
| Cc1ccc(NS(=O)(=O)c2ccc(N3CCN(c4ccc(O)cc4)CC3)c([N+](=O)[O-])c2)c(C)c1 | 5.7 µM |  |
| O=C(OC12CC3CC(CC(C3)C1)C2)c1ccc(NCc2cc(O)ccc2O)cc1 | 8.91 µM |  |
| O=[N+]([O-])c1cccc(SSc2cccc([N+](=O)[O-])c2)c1 | 4.62 µM |  |
| Cc1c(Cc2ccccc2)c(NCCN(C)C)n2c(nc3ccccc32)c1C#N | 0.701 µM |  |
| O=[N+]([O-])c1cc(S(=O)(=O)C(F)(F)F)ccc1Sc1nc2ccccc2s1 | 3.43 µM |  |
| CC(C)=CCc1c2c(c3occ(-c4ccc(O)c(O)c4)c(=O)c3c1O)C=CC(C)(C)O2 | 8.75 µM |  |
| Oc1ccc(Cl)cc1Cc1cc(Cl)ccc1O | 5.41 µM |  |
| Cc1ccc(C(=O)N2CCN(c3ccccc3Cl)CC2)cc1[N+](=O)[O-] | 4.09 µM |  |
| COc1ccc(OC)c(NC(=O)c2nc(S(=O)(=O)Cc3ccccc3)ncc2Cl)c1 | 4.3 µM |  |
| O=[N+]([O-])c1cnc(Sc2ccncn2)s1 | 3.02 µM |  |
| CC(C)(C)c1ccc(C(=O)CC(Sc2ccc(Cl)cc2)C(=O)O)cc1 (configuration not stated) | 7.29 µM |  |
| O=C(/C=C/c1ccccc1)NC(=S)NNC(=O)c1cnccn1 | 3.69 µM |  |
